Target: T1, human neutrophil elastase (HNE) (Homo sapiens, UniProt P08246)
T1 construct: purchased Sigma E8140
T1 sequence (P08246 30-247 limits assumed): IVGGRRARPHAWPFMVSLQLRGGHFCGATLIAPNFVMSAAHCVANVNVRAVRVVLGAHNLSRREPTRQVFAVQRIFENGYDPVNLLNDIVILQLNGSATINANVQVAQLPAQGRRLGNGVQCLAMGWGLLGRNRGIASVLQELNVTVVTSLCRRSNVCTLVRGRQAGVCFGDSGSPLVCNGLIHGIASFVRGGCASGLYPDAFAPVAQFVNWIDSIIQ
Test: HNE enzyme assay (human neutrophil elastase enzyme activity assay)
Assay type: biochemical
Conditions: human leukocyte elastase 0.00072 U/mL; substrate MeOSuc-Ala-Ala-Pro-Val-AMC 100 μM; 25° C. for 30 minutes; at least two separate experiments; read-out: HNE inhibition (HNE enzyme inhibition, IC50 values)
Description: Compounds of the present invention were tested for potency in a human neutrophil elastase (HNE) enzyme activity assay.
Assays were performed in 96-well plates in a total assay volume of 100 μL. The final concentration of elastase enzyme (human leukocyte elastase, Sigma E8140) was 0.00072 U/mL. The peptide substrate (MeOSuc-Ala-Ala-Pro-Val-AMC, Calbiochem #324740) was used at a final concentration of 100 μM. The final concentration of DMSO was 1% in the assay buffer (0.05M Tris.HCl, 0.1M NaCl, 0.1M CaCl2, 0.0005% brij-35, pH 7.5). The enzymatic reaction was started by addition of the enzyme and incubated at 25° C. for 30 minutes. After incubation, the reaction was stopped by addition of soybean trypsin inhibitor (Sigma T9003) at a final concentration of 50 μg/well. Fluorescence was measured using a Molecular Devices fluorescence plate reader using 380 nm excitation and 460 nm emission wavelengths.
A dose response to each compound was performed and the effect of compound in each experiment was expressed as a percentage inhibition of the control enzyme fluorescence. Dose response curves were plotted and compound potency (IC50) was determined. Compounds were tested in at least two separate experiments.

Cn1c(-c2ccnn2-c2ccc(C#N)cc2)c(C(=O)NCC[N+](C)(C)C)c(=O)n1-c1cccc(C(F)(F)F)c1 [Example 21, (2-{[2′-(4-Cyano-phenyl)-2-methyl-5-oxo-1-(3-trifluoromethyl-phenyl)-2,5-dihydro-1H,2′H-[3,3′]bipyrazolyl-4-carbonyl]-amino}-ethyl)-trimethyl-ammonium benzene sulphonate]
IC50: 1 to 10 nM

Cn1c(-c2ccnn2-c2ccc(C#N)cc2)c(C(=O)NC2CC[N+]3(CCCC3)CC2)c(=O)n1-c1cccc(C(F)(F)F)c1 [Example 22, 8-{[2′-(4-Cyano-phenyl)-2-methyl-5-oxo-1-(3-trifluoromethyl-phenyl)-2,5-dihydro-1H,2′H-[3,3′]bipyrazolyl-4-carbonyl]-amino}-5-azonia-spiro[4.5]decane bromide]
IC50: < 1 nM

Cn1c(-c2ccnn2-c2ccc(C#N)cc2)c(C(=O)N[C@@H]2C[C@@H]3C[N+](C)(C)C[C@@H]3C2)c(=O)n1-c1cccc(C(F)(F)F)c1 [Example 23, (3aS,5R,6aR)-5-{[2′-(4-Cyano-phenyl)-2-methyl-5-oxo-1-(3-trifluoromethyl-phenyl)-2,5-dihydro-1H,2′H-[3,3′]bipyrazolyl-4-carbonyl]-amino}-2,2-dimethyl-octahydro-cyclopenta[c]pyrrolium benzene sulphonate]
IC50: < 1 nM

Cn1c(-c2ccnn2-c2ccc(C#N)cc2)c(C(=O)N[C@H]2CC[C@H](C[N+](C)(C)C)CC2)c(=O)n1-c1cccc(C(F)(F)F)c1 [Example 24, (Trans-4-{[2′-(4-cyano-phenyl)-2-methyl-5-oxo-1-(3-trifluoromethyl-phenyl)-2,5-dihydro-1H,2′H-[3,3′]bipyrazolyl-4-carbonyl]-amino}-cyclohexylmethyl)-trimethyl-ammonium benzene sulphonate]
IC50: < 1 nM

Cn1c(-c2ccnn2-c2ccc(C#N)cc2)c(C(=O)N[C@H]2CC[C@H](C[N+](C)(C)Cc3ccccc3)CC2)c(=O)n1-c1cccc(C(F)(F)F)c1 [Example 25, Benzyl-(trans-4-{[2′-(4-cyano-phenyl)-2-methyl-5-oxo-1-(3-trifluoromethyl-phenyl)-2,5-dihydro-1H,2′H-[3,3′]bipyrazolyl-4-carbonyl]-amino}-cyclohexylmethyl)-dimethyl-ammonium bromide]
IC50: < 1 nM

C[C@H](NC(=O)c1c(-c2ccnn2-c2ccc(C#N)cc2)n(C)n(-c2cccc(C(F)(F)F)c2)c1=O)C(=O)N1CC[N+](C)(C)CC1 [Example 26, 4-((S)-2-{[2′-(4-Cyano-phenyl)-2-methyl-5-oxo-1-(3-trifluoromethyl-phenyl)-2,5-dihydro-1H,2′H-[3,3′]bipyrazolyl-4-carbonyl]-amino}-propionyl)-1,1-dimethyl-piperazin-1-ium benzene sulphonate]
IC50: < 1 nM

C[C@H](NC(=O)c1c(-c2ccnn2-c2ccc(C#N)cc2)n(C)n(-c2cccc(C(F)(F)F)c2)c1=O)C(=O)N1CC[N+](C)(Cc2ccccc2)CC1 [Example 27, 1-Benzyl-4-((S)-2-{[2′-(4-cyano-phenyl)-2-methyl-5-oxo-1-(3-trifluoromethyl-phenyl)-2,5-dihydro-1H,2′H-[3,3′]bipyrazolyl-4-carbonyl]-amino}-propionyl)-1-methyl-piperazin-1-ium bromide]
IC50: < 1 nM

Cn1c(-c2ccnn2-c2ccc(C#N)cc2)c(C(=O)NC2C[C@H]3CC[C@@H](C2)[N+]3(C)C)c(=O)n1-c1cccc(C(F)(F)F)c1 (stereo partly drawn) [Example 28, (1S,3S,5R)-3-{[2′-(4-Cyano-phenyl)-2-methyl-5-oxo-1-(3-trifluoromethyl-phenyl)-2,5-dihydro-1H,2′H-[3,3′]bipyrazolyl-4-carbonyl]-amino}-8,8-dimethyl-8-azonia-bicyclo[3.2.1]octane benzene sulphonate]
IC50: < 1 nM

Cn1c(-c2ccnn2-c2ccc(C#N)cc2)c(C(=O)NC[C@H]2CC[C@H]([N+](C)(C)C)CC2)c(=O)n1-c1cccc(C(F)(F)F)c1 [Example 29, [Trans-4-({[2′-(4-cyano-phenyl)-2-methyl-5-oxo-1-(3-trifluoromethyl-phenyl)-2,5-dihydro-1H,2′H-[3,3′]bipyrazolyl-4-carbonyl]-amino}-methyl)-cyclohexyl]-trimethyl-ammonium benzene sulphonate]
IC50: 1 to 10 nM

C[C@H](NC(=O)c1c(-c2ccnn2-c2ccc(C#N)cc2)n(C)n(-c2cccc(C(F)(F)F)c2)c1=O)c1ncc(C[N+](C)(C)C)o1 [Example 30, [2-((S)-1-{[2′-(4-Cyano-phenyl)-2-methyl-5-oxo-1-(3-trifluoromethyl-phenyl)-2,5-dihydro-1H,2′H-[3,3′]bipyrazolyl-4-carbonyl]-amino}-ethyl)-oxazol-5-ylmethyl]-trimethyl-ammonium benzene sulphonate]
IC50: < 1 nM

C[C@H](NC(=O)c1c(-c2ccnn2-c2ccc(C#N)cc2)n(C)n(-c2cccc(C(F)(F)F)c2)c1=O)c1ncc(C[N+](C)(C)Cc2ccccc2)o1 [Example 31, Benzyl-[2-((S)-1-{[2′-(4-cyano-phenyl)-2-methyl-5-oxo-1-(3-trifluoromethyl-phenyl)-2,5-dihydro-1H,2′H-[3,3′]bipyrazolyl-4-carbonyl]-amino}-ethyl)-oxazol-5-ylmethyl]-dimethyl-ammonium bromide]
IC50: < 1 nM

Cc1cc(C[N+](C)(C)Cc2cnc([C@H](C)NC(=O)c3c(-c4ccnn4-c4ccc(C#N)cc4)n(C)n(-c4cccc(C(F)(F)F)c4)c3=O)o2)no1 [Example 32, [2-((S)-1-{[2′-(4-Cyano-phenyl)-2-methyl-5-oxo-1-(3-trifluoromethyl-phenyl)-2,5-dihydro-1H,2′H-[3,3′]bipyrazolyl-4-carbonyl]-amino}-ethyl)-oxazol-5-ylmethyl]-dimethyl-(5-methyl-isoxazol-3-ylmethyl)-ammonium chloride]
IC50: < 1 nM

Cn1c(-c2ccnn2-c2ccc(C#N)cc2)c(C(=O)NC2CCN(C(=O)C[N+](C)(C)C)CC2)c(=O)n1-c1cccc(C(F)(F)F)c1 [Example 33, [2-(4-{[2′-(4-Cyano-phenyl)-2-methyl-5-oxo-1-(3-trifluoromethyl-phenyl)-2,5-dihydro-1H,2′H-[3,3′]bipyrazolyl-4-carbonyl]-amino}-piperidin-1-yl)-2-oxo-ethyl]-trimethyl-ammonium benzene sulphonate]
IC50: < 1 nM

Cn1c(-c2ccnn2-c2ccc(C#N)cc2)c(C(=O)OC2CCN(C(=O)C[N+](C)(C)C)CC2)c(=O)n1-c1cccc(C(F)(F)F)c1 [Example 34, (2-{4-[2′-(4-Cyano-phenyl)-2-methyl-5-oxo-1-(3-trifluoromethyl-phenyl)-2,5-dihydro-1H,2′H-[3,3′]bipyrazolyl-4-carbonyloxy]-piperidin-1-yl}-2-oxo-ethyl)-trimethyl-ammonium benzene sulphonate]
IC50: 1 to 10 nM

C[C@H](NC(=O)c1c(-c2ccnn2-c2ccc(C#N)cc2)n(C)n(-c2cccc(C(F)(F)F)c2)c1=O)C(=O)N1CCC([N+](C)(C)Cc2ccccc2)CC1 [Example 35, Benzyl-[1-((S)-2-{[2′-(4-cyano-phenyl)-2-methyl-5-oxo-1-(3-trifluoromethyl-phenyl)-2,5-dihydro-1H,2′H-[3,3′]bipyrazolyl-4-carbonyl]-amino}-propionyl)-piperidin-4-yl]-dimethyl-ammonium bromide]
IC50: < 1 nM

C[C@H](NC(=O)c1c(-c2ccnn2-c2ccc(C#N)cc2)n(C)n(-c2cccc(C(F)(F)F)c2)c1=O)C(=O)N(C)CC1CC[N+](C)(C)CC1 [Example 36, 4-{[((S)-2-{[2′-(4-Cyano-phenyl)-2-methyl-5-oxo-1-(3-trifluoromethyl-phenyl)-2,5-dihydro-1H,2′H-[3,3′]bipyrazolyl-4-carbonyl]-amino}-propionyl)-methyl-amino]-methyl}-1,1-dimethyl-piperidinium benzene sulphonate]
IC50: < 1 nM

C[C@H](NC(=O)c1c(-c2ccnn2-c2ccc(C#N)cc2)n(C)n(-c2cccc(C(F)(F)F)c2)c1=O)c1nnc(C[N+](C)(C)C)o1 [Example 37, [5-((S)-1-{[2′-(4-Cyano-phenyl)-2-methyl-5-oxo-1-(3-trifluoromethyl-phenyl)-2,5-dihydro-1H,2′H-[3,3′]bipyrazolyl-4-carbonyl]-amino}-ethyl)-[1,3,4]oxadiazol-2-ylmethyl]-trimethyl-ammonium benzene sulphonate]
IC50: < 1 nM

C[C@H](NC(=O)c1c(-c2ccnn2-c2ccc(C#N)cc2)n(C)n(-c2cccc(C(F)(F)F)c2)c1=O)C(=O)OCC1CC[N+](C)(C)CC1 [Example 38, 4-((S)-2-{[2′-(4-Cyano-phenyl)-2-methyl-5-oxo-1-(3-trifluoromethyl-phenyl)-2,5-dihydro-1H,2′H-[3,3′]bipyrazolyl-4-carbonyl]-amino}-propionyloxymethyl)-1,1-dimethyl-piperidinium benzene sulphonate]
IC50: < 1 nM
